Results on 16 compounds are retold here after patent publication US9061030B2, “sGC stimulators” (IRONWOOD PHARMACEUTICALS, INC., priority 2010, dated 2015).

The test system of this assay is Thoracic aortic rings. Kind of assay: Thoracic aortic rings assay. More on the design: species or system rat. The note with it: for inhibition at 1 µM: 1 μM compound, read-out: Percent Relaxation at 1 μM; for inhibition at 1 µM / inhibition at 3 µM / inhibition at 10 µM: rat thoracic aortic rings contracted with 100 ng/mL phenylephrine; for inhibition at 3 µM: 3 μM compound, read-out: Percent Relaxation at 3 μM; for inhibition at 10 µM: 10 μM compound, read-out: Percent Relaxation at 10 μM; for EC50: relaxation of rat thoracic aortic rings contracted with 100 ng/mL phenylephrine, read-out: Aortic Ring EC50. As for the experimental part:
Thoracic aortic rings were dissected from anesthetized (isoflurane) male Sprague-Dawley rats weighing 275-299 g. Tissues were immediately transferred to ice-cold Krebs-Henseleit solution, which had been aerated with 95% O2 and 5% CO2 for 30 minutes. Following removal of connective tissue, aortic sections were cut into 4 rings (˜2 mm each) and suspended on 2 L-shaped hooks, with one hook fixed at the bottom of the tissue bath (Schuler Organ Bath, Harvard Apparatus) and the other connected to a force transducer (F30 Force Transducer, Harvard Apparatus). Baths contained Krebs Henseleit solution (10 mL) heated to 37° C. and aerated with 95% O2 and 5% CO2. Rings were brought to an initial tension of 0.3-0.5 g and gradually raised to a resting tension of 1.0 g over 60 minutes. Rings were rinsed with Krebs Henseleit solution (heated to 37° C. and aerated with 95% 02 and 5% CO2) at 15 minute intervals until a stable baseline was obtained. Rings were considered to be stable after a resting tension of 1.0 g was maintained (for approximately 10 minutes) without need for adjustment. Rings were then contracted with 100 ng/mL phenylephrine by adding 100 μL of a 10 μg/mL phenylephrine stock solution. Tissues achieving a stable contraction were then treated in a cumulative, dose dependent manner with test compounds prepared in dimethylsulfoxide (DMSO). In some cases, tissues were rinsed three times over a 5 minute period with Krebs-Heinseleit's solution (heated to 37° C. and aerated with 95% 02 and 5% CO2), allowed to stabilize at baseline, and then used for characterization of other test articles or DMSO effects. All data were collected using the HSE-ACAD software provided by Harvard Apparatus. Percent relaxation effects were calculated in Microsoft Excel using the recorded tension value of 100 ng/mL phenylephrine treatment as 0% inhibition and, after washing the tissue with buffer, the original resting tension of tissue is used as 100% inhibition. EC50 values were calculated from concentration-response curves generated with GraphPad Prism Software.
The biological data for some of the compounds of Formula IA and Formula IB, in comparison with the prior art compound, BAY 41-2272, as the reference compound, determined by the thoracic aorta ring assay are presented in Table 6 below.

Turning to `Fc1ccccc1Cn1nc(-c2ccccn2)nc1-c1ccccn1` [Compound I-1], the inhibition at 1 µM was in the range of 20 to 40%; the inhibition at 3 µM lay within 60 to 80%; the inhibition at 10 µM lay within 100 to 120%; the EC50 (as a rule, the concentration that produces a half-maximal response) was 1000 to 2000 nM.
As to `Fc1ccccc1Cn1nc(-c2ncccn2)nc1-c1cscn1` [Compound I-3], the inhibition at 1 µM lay in the range of 40 to 60%, the inhibition at 3 µM lay in the range of 80 to 100%, the inhibition at 10 µM was in the range of 100 to 120% and the EC50 fell in the range of 1000 to 2000 nM.
With `Fc1ccccc1Cn1nc(-c2ccccn2)nc1-c1cscn1` [Compound I-4], the inhibition at 1 µM lay in the range of 60 to 80%, the inhibition at 3 µM lay in the range of 100 to 120% and the EC50 is under 1000 nM.
Take `Fc1ccccc1Cn1nc(-c2ccccn2)nc1-c1ncco1` [Compound I-6]: the inhibition at 1 µM fell in the range of 20 to 40%, the inhibition at 3 µM was in the range of 60 to 80%, the inhibition at 10 µM lay within 100 to 120% and the concentration for a half-maximal effect (EC50) is 1000 to 2000 nM.
`Fc1ccccc1Cn1nc(-c2ccccn2)nc1-c1cocn1` [Compound I-12, 4-(1-(2-fluorobenzyl)-3-(pyridin-2-yl)-1H-1,2,4-triazol-5-yl)oxazole]: the inhibition at 1 µM lay within 40 to 60%, the inhibition at 3 µM was 80 to 100%, the inhibition at 10 µM was 100 to 120% and the EC50 was under 1000 nM.
As for `Fc1ccccc1Cn1nc(-c2ccccn2)nc1-c1nccs1` [Compound I-25], the inhibition at 1 µM fell in the range of 40 to 60%, the inhibition at 3 µM lay within 80 to 100%, the inhibition at 10 µM is 100 to 120% and the EC50 was under 1000 nM.
Take `Fc1ccccc1Cn1nc(-c2ncccn2)nc1-c1nccs1` [Compound I-30]: the inhibition at 1 µM was in the range of 20 to 40%, the inhibition at 3 µM lay within 60 to 80%, the inhibition at 10 µM was in the range of 100 to 120% and the EC50 was in the range of 2000 to 3000 nM.
In the case of `Fc1ccc(-c2nc(-c3nccs3)n(Cc3ccccc3F)n2)nc1` [Compound I-38], the inhibition at 1 µM is 40 to 60%, the inhibition at 3 µM fell in the range of 80 to 100%, the inhibition at 10 µM lay in the range of 100 to 120% and the 50% effective concentration (EC50) was 1000 to 2000 nM.
For `Fc1ccccc1Cn1nc(-c2cscn2)nc1-c1nccs1` [Compound I-40], in that order: 20 to 40%, 60 to 80%, 100 to 120% and 1000 to 2000 nM.
With `Fc1ccccc1Cn1nc(-c2nccs2)nc1-c1cscn1` [Compound I-41], the inhibition at 1 µM fell in the range of 80 to 100%, the inhibition at 3 µM is 100 to 120%, the inhibition at 10 µM is 100 to 120% and the EC50 was under 1000 nM.
In the case of `Nc1ccnc(-c2nc(-c3nccs3)n(Cc3ccccc3F)n2)c1` [Compound I-44], the inhibition at 1 µM lay within 80 to 100%, the inhibition at 3 µM lay within 100 to 120%, the inhibition at 10 µM was 100 to 120% and the concentration for a half-maximal effect (EC50) is under 1000 nM.
Consider `Fc1ccccc1Cn1nc(-c2ncccn2)nc1-c1cocn1` [Compound I-46], for which the inhibition at 1 µM was in the range of 20 to 40%, the inhibition at 3 µM is 60 to 80%, the inhibition at 10 µM fell in the range of 80 to 100% and the EC50 fell in the range of 2000 to 3000 nM.
On to `Nc1ccnc(-c2nc(-c3nccs3)n(Cc3ccccc3F)n2)n1` [Compound I-48, 2-(1-(2-fluorobenzyl)-5-(thiazol-2-yl)-1H-1,2,4-triazol-3-yl)pyrimidin-4-amine], for which the inhibition at 1 µM fell in the range of 40 to 60%, the inhibition at 3 µM is 80 to 100%, the inhibition at 10 µM was 100 to 120% and the EC50 was in the range of 1000 to 2000 nM.
`Fc1ccccc1Cn1nc(-c2ccccn2)nc1-n1cncn1` [Compound I-50, 2′-(2-fluorobenzyl)-5′-(pyridin-2-yl)-2′H-1,3′-bi(1′,2′,4-triazole)]: the inhibition at 1 µM lay in the range of 10 to 20%, the inhibition at 3 µM fell in the range of 20 to 40% and the inhibition at 10 µM was 60 to 80%.
Turning to `Nc1ccnc(-c2nc(-c3cscn3)n(Cc3ccccc3F)n2)c1` [Compound I-53, 2-(1-(2-fluorobenzyl)-5-(thiazol-4-yl)-1H-1,2,4-triazol-3-yl)pyridin-4-amine], the inhibition at 1 µM fell in the range of 20 to 40%, the inhibition at 3 µM was in the range of 80 to 100%, the inhibition at 10 µM lay within 100 to 120% and the EC50 lay in the range of 1000 to 2000 nM.
For the compound `COC(=O)N(C)c1c(N)nc(-c2nc(-c3nccs3)n(Cc3ccccc3F)n2)nc1N` [Compound I-61, methyl 4,6-diamino-2-(1-(2-fluorobenzyl)-5-(thiazol-2-yl)-1H-1,2,4-triazol-3-yl)pyrimidin-5-yl(methyl)carbamate], the inhibition at 1 µM was in the range of 60 to 80%, the inhibition at 3 µM lay within 80 to 100% and the EC50 is under 1000 nM.
